Results reported in patent publication US4829076A, “Novel dihydropyridines having calcium antagonistic and antihypertensive activity” (Alkaloida Vegyeszeti Gyar, priority 1986, dated 1989).
Like-named read-outs stand apart in the source and are kept apart here.

How the values were obtained:
[1] = system: anesthetized, normotensive cats; experiment: Hypotensive effect in anesthetized, normotensive cats; format: in vivo, cat; conditions: 1 mg/kg id.
Protocol: A tube was inserted in the trachea of cats anesthetized with ip.35 mg/kg of pentobarbital sodium to ensure spontaneous respiration. The femoral artery and vein were both cannulated unilaterally. The vegetative test compounds (adrenaline, isoproterenol) were administered through the venous cannule. The mean arterial blood pressure was measured by joining the arterial cannule to a Statham P23Db pressure transducer and electromanometer. The heart rate was determined by a cardiotachometer triggered by arterial pulse-wave.
Various doses of the test compounds were administered through a cannule inserted into the duodenum.

[2] = system: PGF2alpha induced uterus contractions (isolated rat uterus); experiment: In vitro uterus relaxant activity in the isolated rat uterus (inhibition of PGF2alpha induced contraction); conditions: 10^-6 M test compound
Protocol: The test was performed according to the method of Gaddum and Hammeed [Brit. […] The inhibitory activity of 10^-6 M doses of the test compounds on the PGF2alpha induced uterus contractions was determined.

[3] = system: spontaneously hypertensive conscious rats; experiment: Antihypertensive effect in spontaneously hypertensive conscious rats ("SH" rats); format: in vivo, rat (Wistar-Okamoto); conditions: for change in vivo at 10 mg/kg / change in vivo at 2.5 mg/kg: Rattus norvegicus, po
Protocol: The blood pressure of rats was measured before treatment and hourly after drug administration till the 24th posttreatment hour. The test compounds were administered orally, by gavage.

[4] = 10 mg/kg p.o., 2 h, read-out: Systolic blood pressure reduction in %, 2 h
[5] = 10 mg/kg p.o., 5 h, read-out: Systolic blood pressure reduction in %, 5 h
[6] = 10 mg/kg p.o., 24 h, read-out: Systolic blood pressure reduction in %, 24 h

| SMILES | Mean arterial pressure, 5 min [1] | Mean arterial pressure, 15 min [1] | Mean arterial pressure, 30 min [1] | Mean arterial pressure, 60 min [1] | Mean arterial pressure, 120 min [1] | Inhibition of PGF2alpha induced contraction [2] | Systolic blood pressure, 2 h ([3]; 10 mg/kg p.o., 2 h) | Systolic blood pressure, 5 h ([3]; 10 mg/kg p.o., 5 h) | Systolic blood pressure, 24 h ([3]; 10 mg/kg p.o., 24 h) | change in vivo at 10 mg/kg [3, 4] | change in vivo at 10 mg/kg [3, 5] | change in vivo at 10 mg/kg [3, 6] | Systolic blood pressure, 2 h ([3]; 2.5 mg/kg p.o., 2 h) | Systolic blood pressure, 5 h ([3]; 2.5 mg/kg p.o., 5 h) | Systolic blood pressure, 24 h ([3]; 2.5 mg/kg p.o., 24 h) | change in vivo at 2.5 mg/kg ([3]; 2.5 mg/kg p.o., 2 h, read-out: Systolic blood pressure reduction in %, 2 h) | change in vivo at 2.5 mg/kg ([3]; 2.5 mg/kg p.o., 5 h, read-out: Systolic blood pressure reduction in %, 5 h) | change in vivo at 2.5 mg/kg ([3]; 2.5 mg/kg p.o., 24 h, read-out: Systolic blood pressure reduction in %, 24 h) |
| --- | --- | --- | --- | --- | --- | --- | --- | --- | --- | --- | --- | --- | --- | --- | --- | --- | --- | --- |
| COC(=O)C1=C(C)NC(C)=C(C(=O)OC)C1c1ccccc1NC(=O)c1ccc(Cl)cc1 [Example 6] | 115 Hgmm | 85 Hgmm | 65 Hgmm | 70 Hgmm | 75 Hgmm | – | – | – | – | – | – | – | – | – | – | – | – | – |
| COC(=O)C1=C(C)NC(C)=C(C(=O)OC)C1c1ccccc1NC(=O)c1ccccc1[N+](=O)[O-] [Example 8] | – | – | – | – | – | 96.7% | – | – | – | – | – | – | – | – | – | – | – | – |
| COC(=O)C1=C(C)NC(C)=C(C(=O)OC)C1c1ccccc1NC(=O)C=Cc1ccccc1 [Example 9] | 125 Hgmm | 85 Hgmm | 65 Hgmm | 75 Hgmm | 102 Hgmm | 94.3% | 166.6 Hgmm | 166.6 Hgmm | 192.0 Hgmm | -13% | -13% | 1% | – | – | – | – | – | – |
| COC(=O)C1=C(C)NC(C)=C(C(=O)OC)C1c1ccccc1NC(=O)c1ccco1 [Example 10] | 60 Hgmm | 70 Hgmm | 80 Hgmm | 85 Hgmm | – | 94.0% | – | – | – | – | – | – | – | – | – | – | – | – |
| COC(=O)C1=C(C)NC(C)=C(C(=O)OC)C1c1ccccc1NC(=O)C=Cc1ccc([N+](=O)[O-])cc1 [Example 11] | 147 Hgmm | 130 Hgmm | 125 Hgmm | 120 Hgmm | 132 Hgmm | 77.8% | 140 Hgmm | 157.8 Hgmm | 178.8 Hgmm | -26% | -16% | -5% | – | – | – | – | – | – |
| COC(=O)C1=C(C)NC(C)=C(C(=O)OC)C1c1ccccc1NC(=O)c1ccccc1 [Example 12] | 115 Hgmm | 92 Hgmm | 90 Hgmm | 97 Hgmm | 145 Hgmm | 83.3% | 164 Hgmm | 166.0 Hgmm | 190.8 Hgmm | -14% | -13% | 0% | – | – | – | – | – | – |
| COC(=O)C1=C(C)NC(C)=C(C(=O)OC)C1c1ccccc1NC(=O)c1ccc(OC)cc1 [Example 14] | 150 Hgmm | 75 Hgmm | 85 Hgmm | 95 Hgmm | 110 Hgmm | – | 165 Hgmm | 164.5 Hgmm | 206.8 Hgmm | -17% | -17% | 4% | – | – | – | – | – | – |
| CCCCCCCC(=O)Nc1ccccc1C1C(C(=O)OC)=C(C)NC(C)=C1C(=O)OC [Example 18] | 75 Hgmm | – | 100 Hgmm | 100 Hgmm | – | – | 179.2 Hgmm | 178 Hgmm | 192.6 Hgmm | -11% | -11% | -4% | – | – | – | – | – | – |
| COC(=O)C1=C(C)NC(C)=C(C(=O)OC)C1c1ccccc1NC(=O)c1cccc(C)c1 [Example 20] | 140 Hgmm | – | 105 Hgmm | 105 Hgmm | 120 Hgmm | – | – | – | – | – | – | – | – | – | – | – | – | – |
| COC(=O)C1=C(C)NC(C)=C(C(=O)OC)C1c1ccccc1NC(=O)c1ccccc1C [Example 21] | 90 Hgmm | 95 Hgmm | 100 Hgmm | 110 Hgmm | 110 Hgmm | – | 175.2 Hgmm | 167.8 Hgmm | 201.4 Hgmm | -10% | -14% | 4% | – | – | – | – | – | – |
| CCc1ccc(C(=O)Nc2ccccc2C2C(C(=O)OC)=C(C)NC(C)=C2C(=O)OC)cc1 [Example 22] | 120 Hgmm | 110 Hgmm | 105 Hgmm | 85 Hgmm | 85 Hgmm | – | – | – | – | – | – | – | 142.2 Hgmm | 144.0 Hgmm | 191.4 Hgmm | -27% | -26% | -2% |
| COCCOC(=O)C1=C(C)NC(C)=C(C(=O)OC)C1c1ccccc1NC(=O)c1ccc([N+](=O)[O-])cc1 (centres unmarked) [Example 28] | 137 Hgmm | 105 Hgmm | 97 Hgmm | 100 Hgmm | 115 Hgmm | – | 174.8 Hgmm | 163.5 Hgmm | 202.4 Hgmm | -10% | -16% | 4% | – | – | – | – | – | – |
| COCCOC(=O)C1=C(C)NC(C)=C(C(=O)OC)C1c1ccccc1NC(=O)C(F)(F)F (centres unmarked) [Example 36, 2,6-Dimethyl-3-methoxycarbonyl-5-(2-methoxyethoxycarbonyl)-4-(2-trifluoroacetamidophenyl)-1,4-dihydropyridine] | – | – | – | – | – | – | 172.8 Hgmm | 172.4 Hgmm | 222.0 Hgmm | -19% | -19% | 4% | – | – | – | – | – | – |
| COC(=O)C1=C(C)NC(C)=C(C(=O)OC(C)C)C1c1ccccc1NC(=O)C(F)(F)F (centres unmarked) [Example 37, 2,6-Dimethyl-3-isopropoxycarbonyl-5-methoxycarbonyl-4-(2-trifluoroacetamidophenyl)-1,4-dihydrophyridine] | 150 Hgmm | 100 Hgmm | 100 Hgmm | 100 Hgmm | 135 Hgmm | – | – | – | – | – | – | – | – | – | – | – | – | – |
| COC(=O)C1=C(C)NC(C)=C(C(=O)OC)C1c1ccccc1NS(C)(=O)=O [Example 41, 2,6-Dimethyl-4-n2-methanesulfonylamidophenyl)-3,5-bis(methoxycarbonyle-1,4-dihydropyridine] | 90 Hgmm | 80 Hgmm | 85 Hgmm | – | – | – | – | – | – | – | – | – | – | – | – | – | – | – |
| COC(=O)C1=C(C)NC(C)=C(C(=O)OC)C1c1ccccc1NS(=O)(=O)c1ccc([N+](=O)[O-])cc1 [Example 42, 2,6-Dimethyl-3,5bis(methoxycarbonyl)-4-[2-(4-nitrobenzenesulfonamido)-phenyl]-1,4-dihydropyridine] | – | – | – | – | – | 88.0% | – | – | – | – | – | – | – | – | – | – | – | – |
